# Positions count from the first letter of the chain named. Where two headings read alike, the source gives them in different places.
# Key:
# [1] = biological target: native olfactory CNG channels; settings: cited from earlier work
# [2] = biological target: T1, E340D mutant bovine olfactory CNG channel (Bos taurus, UniProt Q03041, E340D); type: biochemical; settings: cGMP
# T1 sequence (Q03041 1-663 E340D): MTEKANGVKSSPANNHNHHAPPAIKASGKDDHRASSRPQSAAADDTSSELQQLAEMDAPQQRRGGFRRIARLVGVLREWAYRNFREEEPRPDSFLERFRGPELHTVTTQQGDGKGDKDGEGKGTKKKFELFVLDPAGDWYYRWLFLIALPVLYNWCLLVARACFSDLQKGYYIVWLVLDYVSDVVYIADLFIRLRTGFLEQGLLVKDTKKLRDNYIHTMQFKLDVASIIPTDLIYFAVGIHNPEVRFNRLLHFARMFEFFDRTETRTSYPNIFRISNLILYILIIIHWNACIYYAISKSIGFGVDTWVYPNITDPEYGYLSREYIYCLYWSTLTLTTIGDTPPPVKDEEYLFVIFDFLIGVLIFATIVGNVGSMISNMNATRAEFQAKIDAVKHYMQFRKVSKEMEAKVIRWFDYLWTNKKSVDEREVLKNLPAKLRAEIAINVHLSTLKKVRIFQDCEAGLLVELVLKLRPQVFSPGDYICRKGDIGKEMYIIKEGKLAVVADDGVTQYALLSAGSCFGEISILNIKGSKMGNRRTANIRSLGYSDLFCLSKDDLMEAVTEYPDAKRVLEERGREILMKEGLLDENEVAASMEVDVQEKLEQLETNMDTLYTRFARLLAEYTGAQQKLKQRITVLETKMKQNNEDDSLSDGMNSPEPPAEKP
# [3] = biological target: T2, E340Q mutant bovine olfactory CNG channel (Bos taurus, UniProt Q03041, E340Q); type: biochemical
# T2 sequence (Q03041 1-663 E340Q): T1 sequence (Q03041 1-663 E340D) with D340Q
# [4] = biological target: T3, E340N mutant bovine olfactory CNG channel (Bos taurus, UniProt Q03041, E340N); type: biochemical; settings: for P max (+80 mV) / P max (−80 mV): cGMP
# T3 sequence (Q03041 1-663 E340N): T1 sequence (Q03041 1-663 E340D) with D340N
# [5] = 3 μM cGMP, +80 mV, amplitude histogram, Fig. 3
# [6] = 100 μM cGMP, +80 mV, amplitude histogram, Fig. 3
# [7] = high level of current determined with respect to low level
Structure (SMILES),"Ki ([1]; read-out: K i for external Ca2+ blockage, frog, +80 mV, ref Dzeja et al. 1999)","Ki ([1]; read-out: K i for external Ca2+ blockage, frog, −70 mV, ref Dzeja et al. 1999)",P max (+80 mV) [2],P max (−80 mV) [2],"L, equilibrium gating constant ([2]; allosteric model fit, mean ± SD)","n(−80 mV), Hill coefficient ([3]; cGMP)",I(−80 mV)/I(+80 mV) ([3]; cGMP-gated current),"EC50 ([3]; read-out: K 1/2, cGMP, +80 mV)","EC50 ([3]; read-out: K 1/2, cGMP, −80 mV)","EC50 ([3]; read-out: K 1/2,cG, −80 mV, single patch, Fig. 1 fit)","n cG ([3]; −80 mV, single patch, Fig. 1 fit)","P closed [4, 5]","P o,high [4, 5]","P closed [4, 6]","P o,high [4, 6]","P o,low [4, 6]","P max (+80 mV) [4, 7]","P max (−80 mV) [4, 7]",P max (+80 mV) ([4]; low level of current),P max (−80 mV) ([4]; low level of current)
[Ca+2] [Ca^2+],~2 mM,0.265 mM,,,,,,,,,,,,,,,,,,
Nc1nc2c(ncn2[C@@H]2O[C@@H]3COP(=O)(O)O[C@H]3[C@H]2O)c(=O)[nH]1 [cGMP],,,0.985 ± 0.007,0.987 ± 0.007,66 ± 15,2.7 ± 0.5,0.19 ± 0.06,4 ± 1.2 µM,5.6 ± 1.7 µM,4.8 µM,2.4,0.765,0.015,0.01,0.065,0.925,0.10 ± 0.07,0.04 ± 0.01,0.87 ± 0.02,0.96 ± 0.01

# From PMC2233693 (The Journal of General Physiology, 2000)
